Results on 37 compounds are retold here after patent EP4095134A1, “POLYCYCLIC COMPOUNDS FOR THE TREATMENT OF NEUROLOGICAL INDICATIONS” (UCL Business Ltd, priority 2021, dated 2022).

This assay addresses T1, P2Y1 receptor (Homo sapiens, UniProt P47900).
T1 construct: expressed in transfected cells
As to the kind of experiment: P2Y1 IP1 accumulation HTRF assay, antagonism of agonist MRS2365 in stably transfected cells. Type of assay: cell-based. The settings on record: 5nM MRS2365, values rounded to nearest whole number. The method, then: IC50 values were determined using a cell based assay in stably transfected cells overexpressing the P2Y1 receptor. The assay system is a […] (HTRF) assay measuring accumulation of the intracellular messenger inositol monophosphate (IP1), generated intracellularly following activation of P2Y1. Activity of test compounds was generated by measuring antagonism of the increase in IP1 generated by addition of a selective P2Y1 agonist, MRS2365.
P2Y1 overexpressing cells were maintained in T175 flasks. The day before the assay, these cells were split and 20µl cell suspension transferred to each well of white 384-well assay plates at a cell density of 0.5x10^6 cells/mL. Plates were pulse centrifuged, then incubated overnight at 37°C / 5% CO2 prior to assay.
On day of assay, medium was removed from cells and replaced with stimulation buffer. Compounds were prepared in 100% DMSO for addition to cells using the Tecan D300e digital dispenser; compounds were prepared in cassette heads and added directly to wells in the required concentration range, to give a 10-point concentration response curve from 10µM with semi-log dilutions and a final DMSO concentration of 0.1%. Positive control antagonist curves with standard compounds were included on each plate. Plates were incubated with antagonists for 1 hour prior to addition of 5nM of the agonist MRS2365, dispensed using a Bravo liquid handler. Following agonist addition, plates were incubated for 60 minutes prior to assay. Both incubations were carried out at 37°C / 5% CO2.
For the assay, IP1 accumulation was quantified using the IPOne kit according to manufacturer's instructions. In short, a standard curve was prepared for IP 1 quantification, and cells lysed using kit lysis buffer. Assay reagents were added to the lysates, and incubated for 1 hour at room temperature without spinning or shaking. Plates were analysed on a BMG Pherastar plate reader, and IP1 signal generated in cells interpolated from the standard curve.
For all reported results, N is greater than or equal to 4. An individual N refers to one assay run with a single weighing of compound. A minimum of two assay runs were performed for each of two independent weighings of compound. Results (racemic)

T1 sequence (P47900 whole entry): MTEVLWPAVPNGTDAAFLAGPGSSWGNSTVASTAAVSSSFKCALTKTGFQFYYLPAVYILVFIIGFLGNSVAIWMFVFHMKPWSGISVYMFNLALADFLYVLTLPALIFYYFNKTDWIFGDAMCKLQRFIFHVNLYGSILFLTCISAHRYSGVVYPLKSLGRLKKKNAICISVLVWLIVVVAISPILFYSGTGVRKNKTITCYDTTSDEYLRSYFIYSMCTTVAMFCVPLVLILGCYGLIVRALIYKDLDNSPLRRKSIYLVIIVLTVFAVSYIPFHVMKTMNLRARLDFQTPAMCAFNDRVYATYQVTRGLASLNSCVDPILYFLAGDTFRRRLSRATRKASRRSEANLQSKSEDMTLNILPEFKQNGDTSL

As to `COc1ccc(F)c(NC(=O)Nc2cccnc2Oc2ccccc2C2(C(F)(F)F)CCO2)c1` (racemic) [S47, 1-(2-fluoro-5-methoxyphenyl)-3-(2-(2-(2-(trifluoromethyl)oxetan-2-yl)phenoxy)pyridin-3-yl)urea], the IC50 (racemic, N >= 4) was 392 nM.

Take `O=C(Nc1cc(OC(F)(F)F)ccc1F)Nc1cccnc1Oc1ccc(F)cc1C1(C(F)(F)F)CCO1` (racemic) [S40, 1-(2-(4-fluoro-2-(2-(trifluoromethyl)oxetan-2-yl)phenoxy)pyridin-3-yl)-3-(2-fluoro-5-(trifluoromethoxy)phenyl)urea]: the IC50 (racemic, N >= 4) was determined as 278 nM.

Turning to `O=C(Nc1ccc(OC(F)(F)F)cc1F)Nc1ccc(Cl)nc1Oc1ccccc1C1(C(F)(F)F)CCO1` (racemic) [S14, 1-(6-chloro-2-(2-(2-(trifluoromethyl)oxetan-2-yl)phenoxy)pyridin-3-yl)-3-(2-fluoro-4-(trifluoromethoxy)phenyl)urea], the IC50 (racemic, N >= 4) was 94 nM.

Under “racemic, N >= 4”, `Cc1ncc(NC(=O)Nc2ccc(Cl)c(F)c2)c(Oc2ccccc2C2(C(F)(F)F)CCO2)n1` (racemic) [S64, 1-(4-chloro-3-fluorophenyl)-3-(2-methyl-4-(2-(2-(trifluoromethyl)oxetan-2-yl)phenoxy)pyrimidin-5-yl)urea] gave an IC50 of 926 nM.

`O=C(Nc1ccc(OC(F)(F)F)cc1)Nc1cccnc1Oc1ccc(F)cc1C1(C(F)(F)F)CCO1` (racemic) [S33] registered an IC50 (racemic, N >= 4) of 179 nM.

Consider `O=C(Nc1ccc(OC(F)(F)F)cc1)Nc1cccnc1Oc1ccccc1C1COC1` (racemic) [S87], for which the IC50 (racemic, N >= 4) was 4590 nM.

Take `Fc1ccc(Oc2ncccc2Nc2nc3ccc(OC(F)(F)F)cc3[nH]2)c(C2(C(F)(F)F)CCO2)c1` (racemic) [S121]: the IC50 (racemic, N >= 4) was 1440 nM.

For `Cc1ccc(NC(=O)Nc2ccc(Cl)cc2)c(Oc2ccc(F)cc2C2(C(F)(F)F)CCO2)n1` (racemic) [S32, 1-(4-chlorophenyl)-3-(2-(4-fluoro-2-(2-(trifluoromethyl)oxetan-2-yl)phenoxy)-6-methylpyridin-3-yl)urea], the IC50 (racemic, N >= 4) was determined as 169 nM.

`Cc1ncc(NC(=O)Nc2ccc(OC(F)(F)F)cc2F)c(Oc2ccccc2C2(C(F)(F)F)CCO2)n1` (racemic) [S45]: the IC50 (racemic, N >= 4) was determined as 382 nM.

With `O=C(Nc1cc2c(cc1F)OCO2)Nc1cccnc1Oc1ccccc1C1(C(F)(F)F)CCO1` (racemic) [S61, 1-(6-fluorobenzo[d][1,3]dioxol-5-yl)-3-(2-(2-(2-(trifluoromethyl)oxetan-2-yl)phenoxy)pyridin-3-yl)urea], the IC50 (racemic, N >= 4) worked out at 768 nM.

As to `O=C(Nc1ccccc1)Nc1cccnc1Oc1ccccc1C1(C(F)F)CCO1` (racemic) [S80], the IC50 (racemic, N >= 4) came out at 3280 nM.

In turn, `O=C(Nc1ccc(OC(F)(F)F)cc1F)Nc1cccnc1Oc1cc(F)ccc1C1(C(F)(F)F)CCO1` (racemic) [S12] yielded an IC50 (racemic, N >= 4) of 87 nM.

`CN1CCC1(c1ccccc1Oc1ncccc1NC(=O)Nc1ccc(OC(F)(F)F)cc1)C(F)F` (racemic) [S35] returned an IC50 (racemic, N >= 4) of 197 nM.

Consider `O=C(Nc1ccc(C(F)(F)F)nc1)Nc1cccnc1Oc1ccccc1C1(C(F)(F)F)CCO1` (racemic) [S71, 1-(2-(2-(2-(trifluoromethyl)oxetan-2-yl)phenoxy)pyridin-3-yl)-3-(6-(trifluoromethyl)pyridin-3-yl)urea], for which the IC50 (racemic, N >= 4) amounted to 1480 nM.

`CN1CCC1(c1ccccc1Oc1ncccc1NC(=O)Nc1ccc(Cl)cc1F)C(F)(F)F` (racemic) [S10] registered a half-inhibitory concentration (IC50) (racemic, N >= 4) of 78 nM.

For `O=C(Nc1ccccc1)Nc1cccnc1Oc1ccccc1C1(C(F)(F)F)CCO1` (racemic) [S60, 1-phenyl-3-(2-(2-(2-(trifluoromethyl)oxetan-2-yl)phenoxy)pyridin-3-yl)urea], the IC50 (racemic, N >= 4) amounted to 735 nM.

`O=C(Nc1ccc(OC(F)(F)F)cc1)Nc1cccnc1Oc1cccc(C2COC2)c1` (racemic) [S92] returned a half-inhibitory concentration (IC50) (racemic, N >= 4) of 2790 nM.

As to `FC(F)c1nnc(Nc2cccnc2Oc2ccccc2C2(C(F)(F)F)CCO2)s1` (racemic) [S82], the IC50 (racemic, N >= 4) worked out at 4530 nM.

For the compound `O=C(Nc1ccc(CN2CC(F)(F)C2)cc1)Nc1cccnc1Oc1ccccc1C1(C(F)(F)F)CCO1` (racemic) [S62, 1-(4-((3,3-difluoroazetidin-1-yl)methyl)phenyl)-3-(2-(2-(2-(trifluoromethyl)oxetan-2-yl)phenoxy)pyridin-3-yl)urea], the half-maximal inhibitory concentration (IC50) (racemic, N >= 4) came out at 807 nM.

As to `Fc1ccc(Oc2ncccc2Nc2nc3ccc(C(F)(F)F)cc3[nH]2)c(C2(C(F)(F)F)CCO2)c1` (racemic) [S97], the IC50 (racemic, N >= 4) is 1010 nM.

On to `N#Cc1ccc(NC(=O)Nc2cccnc2Oc2ccccc2C2(C(F)(F)F)CCO2)c(F)c1` (racemic) [S72, 1-(4-cyano-2-fluorophenyl)-3-(2-(2-(2-(trifluoromethyl)oxetan-2-yl)phenoxy)pyridin-3-yl)urea], for which, where the note is “racemic, N >= 4”, the IC50 stood at 1490 nM.

Where the note is “racemic, N >= 4”, `COc1ccc(F)c(NC(=O)Nc2ccc(C)nc2Oc2ccccc2C2(C(F)(F)F)CCO2)c1` (racemic) [S44, 1-(2-fluoro-5-methoxyphenyl)-3-(6-methyl-2-(2-(2-(trifluoromethyl)oxetan-2-yl)phenoxy)pyridin-3-yl)urea] yielded an IC50 of 348 nM.

`O=C(Nc1ccc(S(F)(F)(F)(F)F)cc1F)Nc1cccnc1Oc1ccccc1C1(C(F)(F)F)CCO1` (racemic) [S13, 1-(2-fluoro-4-(pentafluoro-λ^6-sulfaneyl)phenyl)-3-(2-(2-(2-(trifluoromethyl)oxetan-2-yl)phenoxy)pyridin-3-yl)urea] registered an IC50 (racemic, N >= 4) of 93 nM.

Turning to `Cc1ccc(NC(=O)NC2CC3(CCC3)C2)c(Oc2ccc(F)cc2C2(C(F)(F)F)CCO2)n1` (racemic) [S63, 1-(2-(4-fluoro-2-(2-(trifluoromethyl)oxetan-2-yl)phenoxy)-6-methylpyridin-3-yl)-3-(spiro[3.3]heptan-2-yl)urea], the IC50 (racemic, N >= 4) is 844 nM.

The compound `O=C(Nc1ccc(OC(F)(F)F)cc1)Nc1cccnc1Oc1ccccc1C1(C(F)F)CCN1CCF` (racemic) [S118] showed an IC50 (racemic, N >= 4) of 121 nM.

`Cc1ccc(NC(=O)Nc2ccc(C#N)cc2F)c(Oc2ccc(F)cc2C2(C(F)(F)F)CCO2)n1` (racemic) [S56, 1-(4-cyano-2-fluorophenyl)-3-(2-(4-fluoro-2-(2-(trifluoromethyl)oxetan-2-yl)phenoxy)-6-methylpyridin-3-yl)urea]: the IC50 (racemic, N >= 4) was 587 nM.

Regarding `COc1cc(NC(=O)Nc2ccc(C)nc2Oc2ccccc2C2(C(F)(F)F)CCO2)ccc1F` (racemic) [S67, 1-(4-fluoro-3-methoxyphenyl)-3-(6-methyl-2-(2-(2-(trifluoromethyl)oxetan-2-yl)phenoxy)pyridin-3-yl)urea], under “racemic, N >= 4”, the half-maximal inhibitory concentration (IC50) is 1060 nM.

Compound `Cc1ccc(Nc2nnc(C(F)F)s2)c(Oc2ccc(F)cc2C2(C(F)(F)F)CCO2)n1` (racemic) [S76] returned an IC50 (racemic, N >= 4) of 3050 nM.

Take `Cc1ncc(NC(=O)Nc2ccc(Cl)cc2F)c(Oc2ccccc2C2(C(F)(F)F)CCO2)n1` (racemic) [S58]: the IC50 (racemic, N >= 4) turned out to be 639 nM.

For the setting “racemic, N >= 4”, `O=C(Nc1ccc(OC(F)(F)F)cc1)Nc1ccc(Cl)nc1Oc1ccccc1C1(C(F)(F)F)CCO1` (racemic) [S20, 1-(6-chloro-2-(2-(2-(trifluoromethyl)oxetan-2-yl)phenoxy)pyridin-3-yl)-3-(4-(trifluoromethoxy)phenyl)urea] displayed an IC50 of 125 nM.

Under “racemic, N >= 4”, `O=C(Nc1ccc(OC(F)(F)F)cc1)Nc1cccnc1Oc1cccc(C2(C(F)(F)F)CCO2)c1` (racemic) [S90, 1-(4-(trifluoromethoxy)phenyl)-3-(2-(3-(2-(trifluoromethyl)oxetan-2-yl)phenoxy)pyridin-3-yl)urea] came in with an IC50 of 322 nM.

Under “racemic, N >= 4”, `CN1CCC1(c1ccccc1Oc1ncccc1NC(=O)Nc1ccc(OC(F)(F)F)cc1)C(F)(F)F` (racemic) [S89] came in with an IC50 of 71 nM.

The compound `Cc1ccc(NC(=O)Nc2ccc(OC(F)(F)F)cc2F)c(Oc2ccccc2[C@]2(C(F)(F)F)CCO2)n1` (racemic) [S104] yielded an IC50 (single enantiomer) of 68 nM.

`O=C(Nc1ccc(Cl)cc1F)Nc1ccc(Cl)nc1Oc1ccccc1C1(C(F)(F)F)CCO1` (racemic) [S22, 1-(6-chloro-2-(2-(2-(trifluoromethyl)oxetan-2-yl)phenoxy)pyridin-3-yl)-3-(4-chloro-2-fluorophenyl)urea] yielded an IC50 (racemic, N >= 4) of 141 nM.

`Cc1ccc(NC(=O)Nc2ccc(Cl)cc2)c(Oc2ccccc2C2(C(F)(F)F)CCO2)n1` (racemic) [S18, 1-(4-chlorophenyl)-3-(6-methyl-2-(2-(2-(trifluoromethyl)oxetan-2-yl)phenoxy)pyridin-3-yl)urea] yielded an IC50 (racemic, N >= 4) of 118 nM.

Under “racemic, N >= 4”, `O=C(Nc1ccc2c(c1)OCO2)Nc1cccnc1Oc1ccccc1C1(C(F)(F)F)CCO1` (racemic) [S70, 1-(benzo[d][1,3]dioxol-5-yl)-3-(2-(2-(2-(trifluoromethyl)oxetan-2-yl)phenoxy)pyridin-3-yl)urea] displayed an IC50 of 1450 nM.

In the case of `O=C(Nc1ccc(OC(F)(F)F)cc1)Nc1cccnc1Oc1ccccc1C1(C(F)(F)F)CCO1` (racemic) [S11, 1-(4-(trifluoromethoxy)phenyl)-3-(2-(2-(2-(trifluoromethyl)oxetan-2-yl)phenoxy)pyridin-3-yl)urea], for the setting “racemic, N >= 4”, the IC50 worked out at 84 nM.
